According to PubChem BioAssay (NCI):
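A five-concentration, 48-hour dose response in 96-well plates underlies each endpoint, interpolated linearly between surrounding concentrations. GI50 is the concentration that inhibits growth by half. TGI denotes the concentration required for complete inhibition of growth.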

Legend:
Experiment in all cases: DTP human tumour cell line panel, 48 h
SK-MEL-2 melanoma = tested on: SK-MEL-2 melanoma
SNB-75 CNS = tested on: SNB-75 CNS
786-0 renal = tested on: 786-0 renal
OVCAR-8 ovarian = tested on: OVCAR-8 ovarian
HCT-15 colon = tested on: HCT-15 colon
SNB-19 CNS = tested on: SNB-19 CNS
ACHN renal = tested on: ACHN renal
HL-60(TB) leukemia = tested on: HL-60(TB) leukemia
MALME-3M melanoma = tested on: MALME-3M melanoma
CCRF-CEM leukemia = tested on: CCRF-CEM leukemia
BT-549 breast = tested on: BT-549 breast
UO-31 renal = tested on: UO-31 renal
TK-10 renal = tested on: TK-10 renal
NCI-H23 lung = tested on: NCI-H23 lung
SF-268 CNS = tested on: SF-268 CNS
PC-3 prostate = tested on: PC-3 prostate
RPMI-8226 leukemia = tested on: RPMI-8226 leukemia
RXF 393 renal = tested on: RXF 393 renal
SK-MEL-5 melanoma = tested on: SK-MEL-5 melanoma
M14 melanoma = tested on: M14 melanoma
SK-MEL-28 melanoma = tested on: SK-MEL-28 melanoma
SF-295 CNS = tested on: SF-295 CNS
SR leukemia = tested on: SR leukemia
SN12C renal = tested on: SN12C renal
DU-145 prostate = tested on: DU-145 prostate
A498 renal = tested on: A498 renal
SW-620 colon = tested on: SW-620 colon
U251 CNS = tested on: U251 CNS
A549 NSCLC = tested on: A549 NSCLC
KM12 colon = tested on: KM12 colon
HCT-116 colon = tested on: HCT-116 colon
OVCAR-4 ovarian = tested on: OVCAR-4 ovarian
HT29 colon = tested on: HT29 colon
HCC-2998 colon = tested on: HCC-2998 colon
UACC-257 melanoma = tested on: UACC-257 melanoma
T-47D breast = tested on: T-47D breast
NCI-H226 lung = tested on: NCI-H226 lung
HS 578T breast = tested on: HS 578T breast
MDA-MB-231 breast = tested on: MDA-MB-231 breast
HOP-92 NSCLC = tested on: HOP-92 NSCLC
COLO 205 colon = tested on: COLO 205 colon
MOLT-4 leukemia = tested on: MOLT-4 leukemia
HOP-62 NSCLC = tested on: HOP-62 NSCLC
NCI-H460 lung = tested on: NCI-H460 lung
LOX IMVI melanoma = tested on: LOX IMVI melanoma
MDA-MB-435 = tested on: MDA-MB-435
K-562 leukemia = tested on: K-562 leukemia
NCI/ADR-RES ovarian = tested on: NCI/ADR-RES ovarian
SK-OV-3 ovarian = tested on: SK-OV-3 ovarian
OVCAR-5 ovarian = tested on: OVCAR-5 ovarian
EKVX NSCLC = tested on: EKVX NSCLC
NCI-H522 lung = tested on: NCI-H522 lung
SF-539 CNS = tested on: SF-539 CNS
OVCAR-3 ovarian = tested on: OVCAR-3 ovarian
CAKI-1 renal = tested on: CAKI-1 renal
MCF7 breast = tested on: MCF7 breast
UACC-62 melanoma = tested on: UACC-62 melanoma
IGROV1 ovarian = tested on: IGROV1 ovarian

## Brc1cccc(-c2cc(-c3ccc4c(c3)OCCO4)[nH]n2)c1
SK-MEL-2 melanoma
  GI50: 1.74 µM
  TGI: 69.2 µM
SNB-75 CNS
  GI50: 0.531 µM
  TGI: 6.58 µM
786-0 renal
  GI50: 2.51 µM
  TGI: 28.4 µM
OVCAR-8 ovarian
  GI50: 1.68 µM
  TGI: 40.1 µM
HCT-15 colon
  GI50: 0.731 µM
  TGI: 30.6 µM
SNB-19 CNS
  GI50: 3.05 µM
  TGI: 50.5 µM
ACHN renal
  GI50: 1.54 µM
  TGI: 33.2 µM
HL-60(TB) leukemia
  GI50: 0.891 µM
  TGI: 17.5 µM
MALME-3M melanoma
  GI50: 1.3 µM
  TGI: 53.4 µM
CCRF-CEM leukemia
  GI50: 1.59 µM
  TGI: 250 µM
BT-549 breast
  GI50: 1.62 µM
  TGI: 47.8 µM
UO-31 renal
  GI50: 4.24 µM
  TGI: 36.6 µM
TK-10 renal
  GI50: 3.3 µM
  TGI: 40.7 µM
NCI-H23 lung
  GI50: 3.46 µM
  TGI: 53.6 µM
SF-268 CNS
  GI50: 3.11 µM
  TGI: 37.1 µM
PC-3 prostate
  GI50: 1.44 µM
  TGI: 41.4 µM
RPMI-8226 leukemia
  GI50: 1.43 µM
  TGI: 236 µM
RXF 393 renal
  GI50: 1.77 µM
  TGI: 25.7 µM
SK-MEL-5 melanoma
  GI50: 1.17 µM
  TGI: 30.3 µM
M14 melanoma
  GI50: 0.729 µM
  TGI: 31.1 µM
SK-MEL-28 melanoma
  GI50: 11.2 µM
  TGI: 55.5 µM
SF-295 CNS
  GI50: 2.93 µM
  TGI: 32.7 µM
SR leukemia
  GI50: 0.581 µM
  TGI: 136 µM
SN12C renal
  GI50: 1.47 µM
  TGI: 36.8 µM
DU-145 prostate
  GI50: 1.98 µM
  TGI: 27 µM
A498 renal
  GI50: 0.563 µM
  TGI: 3.89 µM
SW-620 colon
  GI50: 0.785 µM
  TGI: 35.3 µM
U251 CNS
  GI50: 1.2 µM
  TGI: 33.4 µM
A549 NSCLC
  GI50: 1.57 µM
  TGI: 37.6 µM
KM12 colon
  GI50: 0.669 µM
  TGI: 25.5 µM
HCT-116 colon
  GI50: 1.13 µM
  TGI: 29.4 µM
OVCAR-4 ovarian
  GI50: 7.79 µM
  TGI: 48.5 µM
HT29 colon
  GI50: 0.804 µM
  TGI: 27.4 µM
HCC-2998 colon
  GI50: 3.92 µM
  TGI: 33.4 µM
UACC-257 melanoma
  GI50: 11.6 µM
  TGI: 52.9 µM
T-47D breast
  GI50: 1.34 µM
  TGI: 50.1 µM
NCI-H226 lung
  GI50: 12.1 µM
  TGI: 60.9 µM
HS 578T breast
  GI50: 1.25 µM
  TGI: 30.6 µM
MDA-MB-231 breast
  GI50: 3.65 µM
  TGI: 32.7 µM
HOP-92 NSCLC
  GI50: 4.31 µM
  TGI: 32.9 µM
COLO 205 colon
  GI50: 1.03 µM
  TGI: 26 µM
MOLT-4 leukemia
  GI50: 1.09 µM
  TGI: 101 µM
HOP-62 NSCLC
  GI50: 1.38 µM
  TGI: 41.3 µM
NCI-H460 lung
  GI50: 0.877 µM
  TGI: 6.07 µM
LOX IMVI melanoma
  GI50: 1.53 µM
  TGI: 30.4 µM
MDA-MB-435
  GI50: 0.186 µM
  TGI: 0.97 µM
K-562 leukemia
  GI50: 0.584 µM
  TGI: 250 µM
NCI/ADR-RES ovarian
  GI50: 0.766 µM
  TGI: 29.8 µM
SK-OV-3 ovarian
  GI50: 1.69 µM
  TGI: 43.6 µM
OVCAR-5 ovarian
  GI50: 3.69 µM
  TGI: 35.4 µM
EKVX NSCLC
  GI50: 7.21 µM
  TGI: 49.6 µM
NCI-H522 lung
  GI50: 0.755 µM
  TGI: 34.8 µM
SF-539 CNS
  GI50: 1.8 µM
  TGI: 8.48 µM
OVCAR-3 ovarian
  GI50: 0.718 µM
  TGI: 2.27 µM
CAKI-1 renal
  GI50: 0.953 µM
  TGI: 29.8 µM
MCF7 breast
  GI50: 1.06 µM
  TGI: 41.2 µM
UACC-62 melanoma
  GI50: 0.871 µM
  TGI: 40.9 µM
IGROV1 ovarian
  GI50: 1.31 µM
  TGI: 30.2 µM

## CCN1CCN(c2nc(NCCCNc3ccnc4cc(Cl)ccc34)c3ccccc3n2)CC1
SK-MEL-2 melanoma
  GI50: 2.14 µM
  TGI: 4.88 µM
SNB-75 CNS
  GI50: 1.78 µM
  TGI: 6.88 µM
786-0 renal
  GI50: 2.18 µM
  TGI: 5.82 µM
OVCAR-8 ovarian
  GI50: 3.5 µM
  TGI: 12.9 µM
HCT-15 colon
  GI50: 2.6 µM
  TGI: 10.9 µM
SNB-19 CNS
  GI50: 2.96 µM
  TGI: 11.5 µM
ACHN renal
  GI50: 2.04 µM
  TGI: 4.54 µM
HL-60(TB) leukemia
  GI50: 2.18 µM
  TGI: 4.25 µM
MALME-3M melanoma
  GI50: 1.78 µM
  TGI: 3.45 µM
CCRF-CEM leukemia
  GI50: 2.88 µM
  TGI: 10.3 µM
BT-549 breast
  GI50: 3.45 µM
  TGI: 13.6 µM
UO-31 renal
  GI50: 1.49 µM
  TGI: 2.97 µM
TK-10 renal
  GI50: 2.17 µM
  TGI: 4.79 µM
NCI-H23 lung
  GI50: 4.29 µM
  TGI: 16.9 µM
SF-268 CNS
  GI50: 2.59 µM
  TGI: 10.7 µM
PC-3 prostate
  GI50: 3.09 µM
  TGI: 14.5 µM
RPMI-8226 leukemia
  GI50: 2.12 µM
  TGI: 6.04 µM
RXF 393 renal
  GI50: 1.51 µM
  TGI: 3.29 µM
SK-MEL-5 melanoma
  GI50: 1.74 µM
  TGI: 3.11 µM
M14 melanoma
  GI50: 1.86 µM
  TGI: 3.63 µM
SK-MEL-28 melanoma
  GI50: 1.91 µM
  TGI: 3.9 µM
SF-295 CNS
  GI50: 1.66 µM
  TGI: 3.37 µM
SR leukemia
  GI50: 1.29 µM
  TGI: 5.44 µM
SN12C renal
  GI50: 2.6 µM
  TGI: 11.5 µM
DU-145 prostate
  GI50: 3.05 µM
  TGI: 13.2 µM
A498 renal
  GI50: 11.3 µM
  TGI: 23.5 µM
SW-620 colon
  GI50: 2.36 µM
  TGI: 7.63 µM
U251 CNS
  GI50: 2.66 µM
  TGI: 7.17 µM
A549 NSCLC
  GI50: 2.84 µM
  TGI: 11.9 µM
KM12 colon
  GI50: 2.74 µM
  TGI: 11.4 µM
HCT-116 colon
  GI50: 2.25 µM
  TGI: 6.53 µM
OVCAR-4 ovarian
  GI50: 2.12 µM
  TGI: 9.57 µM
HT29 colon
  GI50: 2.6 µM
  TGI: 7.22 µM
HCC-2998 colon
  GI50: 1.87 µM
  TGI: 6.09 µM
UACC-257 melanoma
  GI50: 2.01 µM
  TGI: 3.97 µM
T-47D breast
  GI50: 1.87 µM
  TGI: 5.5 µM
NCI-H226 lung
  GI50: 4.97 µM
  TGI: 26 µM
HS 578T breast
  GI50: 2.24 µM
  TGI: 6.22 µM
MDA-MB-231 breast
  GI50: 2.08 µM
  TGI: 5.14 µM
HOP-92 NSCLC
  GI50: 1.78 µM
  TGI: 4.64 µM
COLO 205 colon
  GI50: 1.66 µM
  TGI: 3.46 µM
MOLT-4 leukemia
  GI50: 2.07 µM
  TGI: 9.04 µM
HOP-62 NSCLC
  GI50: 1.79 µM
  TGI: 4.91 µM
NCI-H460 lung
  GI50: 2.14 µM
  TGI: 5.1 µM
LOX IMVI melanoma
  GI50: 1.61 µM
  TGI: 3.13 µM
MDA-MB-435
  GI50: 1.92 µM
  TGI: 3.53 µM
K-562 leukemia
  GI50: 2.23 µM
  TGI: 7.14 µM
NCI/ADR-RES ovarian
  GI50: 15.2 µM
  TGI: 32.3 µM
SK-OV-3 ovarian
  GI50: 2.98 µM
  TGI: 9.23 µM
OVCAR-5 ovarian
  GI50: 3 µM
  TGI: 11 µM
EKVX NSCLC
  GI50: 3.03 µM
  TGI: 14.4 µM
NCI-H522 lung
  GI50: 2.92 µM
  TGI: 6.14 µM
SF-539 CNS
  GI50: 1.71 µM
  TGI: 3.34 µM
OVCAR-3 ovarian
  GI50: 2.9 µM
  TGI: 10.3 µM
MCF7 breast
  GI50: 1.93 µM
  TGI: 11.1 µM
UACC-62 melanoma
  GI50: 1.87 µM
  TGI: 3.58 µM
IGROV1 ovarian
  GI50: 2.36 µM
  TGI: 10.9 µM
